One block for each compound: values may come before it.
Target: T1, human macrophage galactose-type lectin (hMGL) extracellular domain (Homo sapiens, UniProt Q8IUN9)
T1 sequence (Q8IUN9 with tags, fused parts or gaps isoform Q8IUN9-2): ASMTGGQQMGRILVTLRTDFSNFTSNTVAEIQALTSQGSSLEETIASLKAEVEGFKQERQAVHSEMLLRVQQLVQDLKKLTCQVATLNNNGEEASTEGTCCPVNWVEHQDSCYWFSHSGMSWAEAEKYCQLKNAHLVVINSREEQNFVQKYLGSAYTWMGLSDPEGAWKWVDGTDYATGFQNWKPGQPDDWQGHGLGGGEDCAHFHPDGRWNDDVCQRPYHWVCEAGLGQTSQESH
Experiment: ITC titration of ligands into hMGL
Assay type: binding
Conditions: for KA: one-set-of-sites model

[1] = ITC, buffered H2O (10 mM HEPES sodium salt, 50 mM NaCl, 2 mM CaCl2, pH 7.4), 25 °C
[2] = ITC, buffered D2O (10 mM HEPES sodium salt, 50 mM NaCl, 2 mM CaCl2, pH 7.4), 25 °C
[3] = ITC, buffered D2O, pH 7.4, 25 °C
[4] = ITC, buffered H2O, pH 7.4, 25 °C
[5] = deuterium isotope effect, DIE = H2O – D2O

affinity for hMGL (result in words) (ITC, buffered H2O, 25 °C): no indication of a detectable affinity
Structure (SMILES): CO[C@@H]1O[C@H](CO)[C@@H](O)[C@H](O)[C@H]1O [methyl β-glucopyranoside]

Kd [1]: 16 to 17 µM
Structure (SMILES): CC(=O)N[C@H]1[C@@H](O[C@H](C)[C@H](N)C(=O)O)O[C@H](CO)[C@H](O)[C@@H]1O [Thr-Tn]

affinity relative to β-anomer and GalNAcα1-O-Thr conjugate (ITC, buffered H2O, 25 °C): 2 fold
Structure (SMILES): CO[C@H]1O[C@H](CO)[C@H](O)[C@H](O)[C@H]1NC(C)=O [α-Me-GalNAc, Methyl N-acetyl-α-D-galactosamine]

Kd [2]: 7.25 µM | KA [2]: 13.79 ×10^4 M^–1 | n (number of binding sites, stoichiometry) [3]: 0.97 | ΔG [3]: –7.01 kcal mol^–1 | ΔH [3]: –6.81 kcal mol^–1 | Δ−(TΔS) [3]: –0.20 kcal mol^–1 | Kd [1]: 17.7 µM | KA [1]: 5.64 ×10^4 M^–1 | ΔG [4]: –6.49 kcal mol^–1 | ΔH [4]: –11.30 kcal mol^–1 | Δ−(TΔS) [4]: 4.81 kcal mol^–1 | n (number of binding sites, stoichiometry) (ITC, buffered H2O, pH 7.4, 25 °C, n normalized to active cell concentration of the dissociating trimer): 0.99 | ΔΔG [5]: 0.52 kcal mol^–1 | ΔΔH [5]: –4.49 kcal mol^–1 | Δ−(TΔS) [5]: 5.01 kcal mol^–1 | ΔΔH (deuterium isotope effect, DIE = H2O – D2O, listed as free glycan): −4.49 kcal mol^–1
Structure (SMILES): CC(=O)N[C@H]1C(O)O[C@H](CO)[C@H](O)[C@@H]1O (stereo partly drawn) [GalNAc, N-acetyl-D-galactosamine]
